Experimental data taken from patent publication US20110218506A1, “AMOROLFINE PATCH FOR THE TREATMENT OF ONYCHOMYCOSIS” (Galderma Research & Development, priority 2004, published 2011).
Structures can show the parent of a compound that is named as a salt.

Experiment: Solubility in formulation solvents
Assay type: physicochemical

SMILES	solubility in ethyl acetate (ethyl acetate)	solubility in ethanol (ethanol)
O=C1CCCCCCCCCCCCCCO1 [Exaltolide]	highly soluble	–
CCC(C)(C)c1ccc(CC(C)CN2C[C@@H](C)O[C@@H](C)C2)cc1 (stereo partly drawn) [amorolfine HCl, hydrochloride of the cis-4-[3-[4-(1,1-dimethyl-propyl)phenyl]-2-methylpropyl]-2,6-dimethyl-morpholine]	–	particularly soluble
